Among the data in ChEMBL document CHEMBL3763036, “Structural optimization of non-nucleoside DNA methyltransferase inhibitor as anti-cancer agent” (Bioorg Med Chem Lett, 2016) are IC50 and fold change (FC) values, retold here.

A value given as a limit tells only on which side of the number the result lay.

For one test, the system named is NCI-H292. In words: Antiproliferative activity against human NCI-H292 cells. The class given is functional, cell-based.
Test [1] concerns the target DNA (cytosine-5)-methyltransferase 1 (Homo sapiens) (UniProt P26358). In words: Inhibition of DNMT1 in human NCI-H292 cells at 50 uM after 48 hrs by Western blot analysis relative to control. Type of test: cell-based. In general terms: A western blot detects proteins with antibodies after separation by electrophoresis.
The target is the same in test [2]. In words: Inhibition of DNMT1 in human NCI-H292 cells at 100 uM after 48 hrs by Western blot analysis relative to control. Type of test: cell-based.

Sequence of DNA (cytosine-5)-methyltransferase 1 (Homo sapiens) (P26358 whole entry): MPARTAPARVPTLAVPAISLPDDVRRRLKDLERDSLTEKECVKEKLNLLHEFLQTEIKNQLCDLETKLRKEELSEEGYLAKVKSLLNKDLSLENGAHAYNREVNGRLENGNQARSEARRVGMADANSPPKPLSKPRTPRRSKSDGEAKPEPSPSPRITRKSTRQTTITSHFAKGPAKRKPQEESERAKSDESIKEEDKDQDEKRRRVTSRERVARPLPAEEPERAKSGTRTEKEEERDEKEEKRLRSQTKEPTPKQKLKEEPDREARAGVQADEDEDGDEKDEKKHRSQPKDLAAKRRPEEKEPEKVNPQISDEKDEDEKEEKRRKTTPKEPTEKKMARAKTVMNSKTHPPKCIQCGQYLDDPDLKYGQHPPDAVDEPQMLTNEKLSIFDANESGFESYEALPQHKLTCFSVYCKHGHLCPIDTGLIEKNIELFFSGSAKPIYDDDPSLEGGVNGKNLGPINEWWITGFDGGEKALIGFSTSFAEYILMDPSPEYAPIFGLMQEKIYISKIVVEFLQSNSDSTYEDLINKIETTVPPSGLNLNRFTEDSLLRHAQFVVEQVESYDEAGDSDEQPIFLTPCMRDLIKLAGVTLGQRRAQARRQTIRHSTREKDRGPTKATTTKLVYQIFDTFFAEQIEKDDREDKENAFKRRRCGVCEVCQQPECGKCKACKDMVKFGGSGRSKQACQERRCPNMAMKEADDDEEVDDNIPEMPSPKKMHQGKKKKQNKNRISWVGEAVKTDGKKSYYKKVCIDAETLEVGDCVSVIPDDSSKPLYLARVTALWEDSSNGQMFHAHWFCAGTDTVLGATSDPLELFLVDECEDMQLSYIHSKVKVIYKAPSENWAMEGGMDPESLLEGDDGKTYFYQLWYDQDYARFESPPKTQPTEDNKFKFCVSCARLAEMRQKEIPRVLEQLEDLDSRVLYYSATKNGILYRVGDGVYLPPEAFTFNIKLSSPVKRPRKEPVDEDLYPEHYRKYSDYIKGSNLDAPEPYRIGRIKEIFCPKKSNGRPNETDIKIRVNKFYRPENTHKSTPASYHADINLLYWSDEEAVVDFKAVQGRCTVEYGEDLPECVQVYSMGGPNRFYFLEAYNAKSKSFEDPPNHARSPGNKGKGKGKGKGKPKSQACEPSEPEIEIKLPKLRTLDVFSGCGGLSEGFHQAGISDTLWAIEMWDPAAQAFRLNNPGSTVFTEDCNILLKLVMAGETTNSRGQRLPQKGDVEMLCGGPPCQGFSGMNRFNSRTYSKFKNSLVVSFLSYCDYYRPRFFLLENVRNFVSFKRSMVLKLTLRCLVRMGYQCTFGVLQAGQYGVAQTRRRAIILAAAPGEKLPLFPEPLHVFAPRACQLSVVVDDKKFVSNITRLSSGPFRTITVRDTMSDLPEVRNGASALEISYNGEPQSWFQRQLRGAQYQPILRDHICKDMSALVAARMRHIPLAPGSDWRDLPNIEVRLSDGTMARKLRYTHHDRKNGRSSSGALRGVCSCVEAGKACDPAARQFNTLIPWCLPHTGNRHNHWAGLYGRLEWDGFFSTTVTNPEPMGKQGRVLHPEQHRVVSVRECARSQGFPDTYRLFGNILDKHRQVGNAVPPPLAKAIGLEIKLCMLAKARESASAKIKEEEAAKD

What is called IC50 is the concentration at which inhibition is half-maximal. As for `O=C1N/C(=C\c2ccc(Cl)cc2)C(=O)N1c1ccc(Cl)cc1`, the IC50 in the test with NCI-H292 was 35.6 µM. The fold change (FC) in test [1] worked out at 0.99.

In turn, `O=C1N/C(=C\c2ccc(O)cc2)C(=O)N1c1ccc(I)cc1` returned a concentration for half-maximal inhibition (IC50) with NCI-H292 of 25.5 µM. In addition, in test [1], the fold change (FC) was 0.01.

In turn, `O=C(NCC1CCCCC1)c1cccc(N2C(=O)N/C(=C\c3ccc(O)cc3)C2=O)c1` returned an IC50 with NCI-H292 of 17.9 µM. For the same compound, in test [1], the fold change (FC) was found to be 0.25.

As to `O=C1N/C(=C\c2ccc3ccccc3c2)C(=O)N1c1ccc(Cl)cc1`, the IC50 with NCI-H292 was more than 200 µM.

Turning to `O=C1/C(=C/c2ccc(O)cc2)NC(=S)N1c1ccc(I)cc1`, it took 19.7 µM to reach half-maximal inhibition in the test on NCI-H292 (IC50).

As to `O=C1N/C(=C\c2ccc(Br)cc2)C(=O)N1c1ccc(Cl)cc1`, in the test with NCI-H292, the IC50 worked out at 46.6 µM.

In the case of `O=C1N/C(=C\c2ccc(O)cc2)C(=O)N1c1cccc(Br)c1`, the IC50 with NCI-H292 was more than 200 µM.

As for `O=C1N/C(=C\c2ccc(O)cc2)C(=O)N1c1cccc(I)c1`, in the test on NCI-H292, the IC50 is more than 200 µM.

With `O=C(NCc1ccccc1)c1cccc(N2C(=O)N/C(=C\c3ccc(O)cc3)C2=O)c1`, the IC50 in the test with NCI-H292 amounted to 23.5 µM. The fold change (FC) in test [1] was 0.27.

Turning to `O=C1N/C(=C\c2ccc(O)cc2)C(=O)N1c1ccc(Br)cc1`, in the test on NCI-H292, 69.9 µM corresponded to half-maximal inhibition (IC50).

Regarding `Cc1cccc(N2C(=O)N/C(=C\c3ccc(O)cc3)C2=O)c1`, the IC50 with NCI-H292 is more than 200 µM.

Compound `O=C(NCC1CCCCC1)c1ccc(N2C(=O)N/C(=C\c3ccc(O)cc3)C2=O)cc1` returned an IC50 in the test on NCI-H292 of more than 200 µM.

As to `COc1ccc(/C=C2\NC(=O)N(c3ccc(Cl)cc3)C2=O)cc1`, the midpoint of inhibition with NCI-H292, the IC50, lay at 32.1 µM. Besides, the fold change (FC) in test [1] worked out at 1.19.

Turning to `O=C(c1cccc(N2C(=O)N/C(=C\c3ccc(O)cc3)C2=O)c1)N1CCCC1`, the IC50 with NCI-H292 is more than 200 µM.

In the test with NCI-H292, `Cc1ccc(N2C(=O)N/C(=C\c3ccc(O)cc3)C2=O)cc1` displayed an IC50 of 27.9 µM. In addition, in test [1], the fold change (FC) was 0.32.

Compound `COc1cccc(N2C(=O)N/C(=C\c3ccc(O)cc3)C2=O)c1` yielded a 50% inhibitory concentration (IC50) in the test with NCI-H292 of more than 200 µM.

The compound `COc1cc(/C=C2\NC(=O)N(c3ccc(Cl)cc3)C2=O)cc(OC)c1OC` displayed an IC50 in the test with NCI-H292 of more than 200 µM.

`O=C(Nc1ccc(Cl)cc1)c1ccc(N2C(=O)N/C(=C\c3ccc(O)cc3)C2=O)cc1` returned an IC50 with NCI-H292 of more than 200 µM.

Compound `O=C(O)c1ccc(N2C(=O)N/C(=C\c3ccc(O)cc3)C2=O)cc1` showed an IC50 in the test on NCI-H292 of more than 200 µM.

For `O=C(c1ccc(N2C(=O)N/C(=C\c3ccc(O)cc3)C2=O)cc1)N1CCCC1`, the IC50 in the test with NCI-H292 is more than 200 µM.

`O=C(Nc1ccc(Cl)cc1)c1cccc(N2C(=O)N/C(=C\c3ccc(O)cc3)C2=O)c1` registered an IC50 in the test with NCI-H292 of 125 µM.

Consider `O=C1/C(=C/c2ccc(O)cc2)NC(=S)N1c1ccc(Cl)cc1`, for which the IC50 in the test on NCI-H292 turned out to be 28.5 µM.

As to `O=C(O)c1cccc(N2C(=O)N/C(=C\c3ccc(O)cc3)C2=O)c1`, the IC50 in the test on NCI-H292 is more than 200 µM.

Take `O=C(NCc1ccccc1)c1ccc(N2C(=O)N/C(=C\c3ccc(O)cc3)C2=O)cc1`: in the test with NCI-H292, the IC50 is more than 200 µM.

For `O=C1N/C(=C\c2ccc(O)cc2)C(=O)N1c1ccc(Cl)cc1`, the half-maximal inhibitory concentration (IC50) with NCI-H292 amounted to 41.3 µM. Besides, the fold change (FC) in test [2] worked out at 1.08.

In the test with NCI-H292, `CCOC(=O)c1ccc(N2C(=O)N/C(=C\c3ccc(O)cc3)C2=O)cc1` registered an IC50 of more than 200 µM.

In turn, `COc1ccc(N2C(=O)N/C(=C\c3ccc(O)cc3)C2=O)cc1` returned a concentration for half-maximal inhibition (IC50) with NCI-H292 of more than 200 µM.
